Source: patent publication US20230130103A1, “TARGETED PHARMACOLOGICAL THERAPEUTICS IN UVEAL MELANOMA” (Washington University, priority 2017, published 2023)
Starred links: 1 amine or outer side, 2 acyl side, 3 side chain; linkers in the order of their positions; H or OH if unused. Positions of bridges follow the written chain, without caps; N, C: chain ends. Non-standard residues stand in square brackets, D forms with d. Residues, ends and D or L forms follow the SMILES beside them. *: point of attachment. Leu(3R-OH,Nα-propionyl) = CCC(=O)N[C@H](C(=O)*)[C@H](O)C(C)C; X1 = CC(C)[C@@H](O[*:3])[C@H](N[*:1])C(=O)[*:2]; X2 = CC(C)[C@H](O[*:3])[C@@H](N[*:1])C(=O)[*:2]; NMeaThr = CN[C@H](C(=O)O)[C@H](C)O; dPhLac = O=C(O)[C@H](O)Cc1ccccc1; NMeA = CN[C@@H](C)C(=O)O; NMeDha = C=C(NC)C(=O)O

Test system: 92.1 UM cells
Experiment: Gene Set Enrichment Analysis (GSEA) of RNA-Seq data
Format: cell-based, Human
[1] = gene set REACTOME_ADAPTIVE_IMMUNE_SYSTEM
[2] = gene set REACTOME_APC_C_CDC20_MEDIATED_DEGRADATION_OF_MITOTIC_PROTEINS
[3] = gene set REACTOME_APC_C_CDH1_MEDIATED_DEGRADATION_OF_CDC20_AND_OTHER_APC_C_CDH1_TARGETED_PROTEINS_IN_LATE_MITOSIS_EARLY_G1
[4] = gene set REACTOME_B[?]_INFECTION
[5] = gene set REACTOME_CHOLESTEROL_BIOSYNTHESIS
[6] = gene set REACTOME_DOUBLE_STRAND_BREAK_REPAIR
[7] = gene set REACTOME_E2F_MEDIATED_REGULATION_OF_DNA_REPLICATION
[8] = gene set REACTOME_EXTENSION_OF_TELOMERES
[9] = gene set REACTOME_FACTORS_INVOLVED_IN_MEGAKARYOCYTE_DEVELOPMENT_AND_PLATELET_PRODUCTION
[10] = gene set REACTOME_G0_AND_EARLY_G1
[11] = gene set REACTOME_HOST_INTERACTIONS_HIV_FACTORS
[12] = gene set REACTOME_LICAM_INTERACTIONS
[13] = gene set REACTOME_METABOLISM_OF_NON_CODING_RNA
[14] = gene set REACTOME_PREFOLDIN_MEDIATED_TRANSFER_OF_SUBSTRATE_TO_CCT_TRIC
[15] = gene set REACTOME_TRANSPORT_OF_MATURE_MRNA_DERIVED_FROM_AN_INTRONLESS_TRANSCRIPT
[16] = gene set REACTOME_[?]_REMOVAL_FROM_CHROMATIN
[17] = gene set REACTOM_GLUCONE_TRANSPORT
[18] = gene set RMEIN_GLUCOCORTICOID_THERAPY_DN
[19] = gene set SAKAL_CHRONIC_HEPATITIS_VS_LIVER_CANCER_UP
[20] = gene set SASAKI_ADULT_T_CELL_LEUKEMIA
[21] = gene set SASSON_RESPONSE_TO_FORSKOLIN_UP
[22] = gene set SASSON_RESPONSE_TO_GONADOTRPHINS_UP
[23] = gene set SCHMIDT_FOR_TARGETS_IN_LIMB_BUD_UP
[24] = gene set SCIBETTA_KDMS8_TARGETS_DN
[25] = gene set SENESE_HDAC1_TARGETS_UP
[26] = gene set SENESE_HDAC2_TARGETS_UP
[27] = gene set SHEPARD_CRUSH_AND_BURN_MUTANT_DN
[28] = gene set SMIRNOV_RESPONSE_TO_IR_6HR_DN
[29] = gene set WAKASUGI_HAVE_ZNF143_BINDING_SITES
[30] = gene set WELSCH_BRCA1_TARGETS_DN
[31] = gene set WHITFIELD_CELL_CYCLE_5
[32] = gene set WHITFIELD_CELL_CYCLE_M_G2
[33] = gene set [?]_APOPTOSIS_BY_REOVIRUS_INFECTION_DN
[34] = gene set [?]_E2F3_ONCOGENIC_SIGNATURE
[35] = gene set [?]_ESTRADIOL_RESPONSE_6HR_UP
[36] = gene set [?]_HYPOXIA_NOT_VIA_[?]
[37] = gene set [?]_OVARIAN_CANCER_INVAVSIVE_VS_LMP_UP
[38] = gene set [?]_PSEUDOPODIA_HAPTOTAXIS_DN
[39] = gene set […]_NEUTROPHIL_AT_SKIN_WOUND_DN
[40] = gene set mARTORIATE_MDM4_TARGETS_FETAL_LIVER_DN

C=C1C(=O)N[C@@H](C)C(=O)N(C)[C@@H](C)C(=O)N[C@H]([C@@H](OC(=O)[C@@H](NC(=O)CC)[C@H](O)C(C)C)C(C)C)C(=O)N(C)[C@@H]([C@H](C)OC)C(=O)O[C@H](C(C)C)[C@H](NC(C)=O)C(=O)O[C@H](Cc2ccccc2)C(=O)N1C [FR, [(1S)-1-[(3S,6R,9S,12S,18R,21S,22R)-21-acetamido-18-benzyl-3-[(1S)-1-methoxyethyl]-4,9,10,12,16-pentamethyl-15-methylidene-2,5,8,11,14,17,20-heptaoxo-22-propan-2-yl-1,19-dioxa-4,7,10,13,16-pentazacyclodocos-6-yl]-2-methylpropyl] (2S,3R)-3-hydroxy-4-methyl-2-(propanoylamino)pentanoate] (Ac-[X1][dPhLac][NMeDha]A[NMeA][X2](Leu(3R-OH,Nα-propionyl))[NMeaThr](Me); ester 1-C)
ES [1]: 0.3979
NES [1]: 2.13
ES [2]: 0.5518
NES [2]: 2.142
ES [3]: 0.56
NES [3]: 2.187
ES [4]: 0.4639
NES [4]: 2.188
ES [5]: 0.6781
NES [5]: 2.138
ES (gene set REACTOME_DNA_REPAIR): 0.4835
NES (gene set REACTOME_DNA_REPAIR): 2.1
ES [6]: 0.6821
NES [6]: 2.156
ES [7]: 0.5585
NES [7]: 2.256
ES [8]: 0.6128
NES [8]: 2.062
ES [9]: 0.4943
NES [9]: 2.346
ES [10]: 0.5589
NES [10]: 2.109
ES [11]: 0.4871
NES [11]: 2.139
ES [12]: 0.4901
NES [12]: 2.064
ES [13]: 0.5725
NES [13]: 2.142
ES (gene set REACTOME_NEP_NS2_INTERACTS_WITH_THE_CELLULAR_EXPORT_MACHINERY): 0.6472
ES [14]: 0.6276
NES [14]: 2.059
ES [15]: 0.6258
NES [15]: 2.187
ES [16]: 0.5346
NES [16]: 2.104
ES [17]: 0.6343
NES [17]: 2.211
NES (gene set REN_ALVEOLAR_RHABDOMYOSARCOMA_DN): 2.084
ES [18]: 0.429
NES [18]: 2.253
ES [19]: 0.4953
NES [19]: 2.051
ES [20]: 0.4693
NES [20]: 2.213
ES [21]: 0.4936
NES [21]: 2.087
ES [22]: 0.5309
NES [22]: 2.23
ES [23]: 0.6919
NES [23]: 2.232
ES [24]: 0.4986
NES [24]: 2.107
ES [25]: 0.4141
NES [25]: 2.222
ES [26]: 0.4933
NES [26]: 2.179
ES (gene set SHEPARD_BMYB_TARGETS): 0.5123
NES (gene set SHEPARD_BMYB_TARGETS): 2.125
ES [27]: 0.4366
NES [27]: 2.055
NES (gene set SHIPP_D[?]CL_VS_FOLLICULAR_LYMPHOMA_UP): 2.142
ES [28]: 0.4874
NES [28]: 2.135
ES (gene set SP1_Q4_01): 0.4346
NES (gene set SP1_Q4_01): 2.133
ES (gene set TBK1DF_DN): 0.434
NES (gene set TBK1DF_DN): 2.201
ES [29]: 0.5464
NES [29]: 2.135
ES [30]: 0.4808
NES [30]: 2.25
ES [31]: 0.4808
NES [31]: 2.252
ES [32]: 0.4742
NES [32]: 2.151
ES (gene set WINTER_HYPOXIA_UP): 0.5079
NES (gene set WINTER_HYPOXIA_UP): 2.091
ES (gene set [?]ENPORAIN_17513976.21_2): 0.5458
ES [33]: 0.4088
NES [33]: 2.137
ES [34]: 0.4474
NES [34]: 2.256
ES [35]: 0.4279
NES [35]: 2.138
ES [36]: 0.3777
NES [36]: 2.125
ES [37]: 0.4908
NES [37]: 2.191
ES [38]: 0.396
NES [38]: 2.222
ES (gene set [?]_[?]1): 0.4368
NES (gene set [?]_[?]1): 2.127
ES (gene set [?]_[?]_Q6): 0.372
NES (gene set [?]_[?]_Q6): 2.07
ES [39]: 0.4325
NES [39]: 2.066
ES [40]: 0.4046
NES [40]: 2.198
